The supplement of paper PMC4862054

Legend:
Details in all cases: incubation time: 72 h
CAL-85-1 [1] = experiment: normalised response (% of control), CellTiter-Glo; higher = more viable cells (100 = DMSO, 0 = benzethonium chloride kill control)
How it was run: (§1)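 Two readouts were taken after 72 h: CellTox Green fluorescence (485/520 nm) first, then CellTiter-Glo luminescence after 10 min at room temperature. Breast cancer cell lines had been seeded as 20 µl suspension into 384-well plates holding compound at 5 concentrations in 10-fold steps across a compound-specific 10,000-fold range. Each value is a normalised signal at a single concentration, with plates scaled to 0.1 % DMSO (100) and a positive kill control (0).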

CAL-51 [2] = experiment: as above
How it was run: as §1

HCC1937 [3] = experiment: as above
How it was run: as §1

MFM-223 [4] = experiment: as above
How it was run: as §1

HDQ-P1 [5] = experiment: as above
How it was run: as §1

MDA-MB-468 [6] = experiment: as above
How it was run: as §1

BT-549 [7] = experiment: as above
How it was run: as §1

SK-BR-3 = experiment: as above
How it was run: as §1

MDA-MB-231 [8] = experiment: as above
How it was run: as §1

HCC1599 [9] = experiment: as above
How it was run: as §1

MDA-MB-453 [10] = experiment: as above
How it was run: as §1

MDA-MB-436 [11] = experiment: as above
How it was run: as §1

CAL-148 [12] = experiment: as above
How it was run: as §1

DU-4475 [13] = experiment: as above
How it was run: as §1

BT-474 [14] = experiment: as above
How it was run: as §1

HCC1143 [15] = experiment: as above
How it was run: as §1

MCF-10A [16] = experiment: as above
How it was run: as §1

CAL-120 [17] = experiment: as above
How it was run: as §1

Hs578T [18] = experiment: as above
How it was run: as §1

CAL-85-1 [19] = experiment: normalised response (% of control), CellTox Green; higher = less cell death (100 = DMSO, 0 = benzethonium chloride kill control)
How it was run: as §1

CAL-51 [20] = experiment: as above
How it was run: as §1

HCC1937 [21] = experiment: as above
How it was run: as §1

MFM-223 [22] = experiment: as above
How it was run: as §1

HDQ-P1 [23] = experiment: as above
How it was run: as §1

MDA-MB-468 [24] = experiment: as above
How it was run: as §1

BT-549 [25] = experiment: as above
How it was run: as §1

MDA-MB-231 [26] = experiment: as above
How it was run: as §1

HCC1599 [27] = experiment: as above
How it was run: as §1

MDA-MB-453 [28] = experiment: as above
How it was run: as §1

MDA-MB-436 [29] = experiment: as above
How it was run: as §1

CAL-148 [30] = experiment: as above
How it was run: as §1

DU-4475 [31] = experiment: as above
How it was run: as §1

BT-474 [32] = experiment: as above
How it was run: as §1

HCC1143 [33] = experiment: as above
How it was run: as §1

MCF-10A [34] = experiment: as above
How it was run: as §1

CAL-120 [35] = experiment: as above
How it was run: as §1

Hs578T [36] = experiment: as above
How it was run: as §1

| SMILES | normalised response (CAL-85-1 [1]) [%] | normalised response (CAL-51 [2]) [%] | normalised response (HCC1937 [3]) [%] | normalised response (MFM-223 [4]) [%] | normalised response (HDQ-P1 [5]) [%] | normalised response (MDA-MB-468 [6]) [%] | normalised response (BT-549 [7]) [%] | normalised response (SK-BR-3) [%] | normalised response (MDA-MB-231 [8]) [%] | normalised response (HCC1599 [9]) [%] | normalised response (MDA-MB-453 [10]) [%] | normalised response (MDA-MB-436 [11]) [%] | normalised response (CAL-148 [12]) [%] | normalised response (DU-4475 [13]) [%] | normalised response (BT-474 [14]) [%] | normalised response (HCC1143 [15]) [%] | normalised response (MCF-10A [16]) [%] | normalised response (CAL-120 [17]) [%] | normalised response (Hs578T [18]) [%] | normalised response (CAL-85-1 [19]) [%] | normalised response (CAL-51 [20]) [%] | normalised response (HCC1937 [21]) [%] | normalised response (MFM-223 [22]) [%] | normalised response (HDQ-P1 [23]) [%] | normalised response (MDA-MB-468 [24]) [%] | normalised response (BT-549 [25]) [%] | normalised response (MDA-MB-231 [26]) [%] | normalised response (HCC1599 [27]) [%] | normalised response (MDA-MB-453 [28]) [%] | normalised response (MDA-MB-436 [29]) [%] | normalised response (CAL-148 [30]) [%] | normalised response (DU-4475 [31]) [%] | normalised response (BT-474 [32]) [%] | normalised response (HCC1143 [33]) [%] | normalised response (MCF-10A [34]) [%] | normalised response (CAL-120 [35]) [%] | normalised response (Hs578T [36]) [%] |
| --- | --- | --- | --- | --- | --- | --- | --- | --- | --- | --- | --- | --- | --- | --- | --- | --- | --- | --- | --- | --- | --- | --- | --- | --- | --- | --- | --- | --- | --- | --- | --- | --- | --- | --- | --- | --- | --- |
| CCc1cnn2c(NCc3ccc[n+]([O-])c3)cc(N3CCCC[C@H]3CCO)nc12 [Dinaciclib] (10 nM) | 24.4 | 65.7 | 91.2 | 85.2 | 71.2 | 90.3 | 68.7 | 37.4 | 28.2 | 75.8 | 94.8 | 53.5 | 101 | 89 | 67.7 | 68.5 | 105 | 88.1 | 79.9 | 67.9 | 87.1 | 107 | 93.8 | 72.3 | 82.9 | 95 | 36.4 | 92 | 104 | 54 | 93.2 | 103 | 92 | 93.7 | 107 | 96.6 | -11 |
| COc1cc2c(cc1-c1c(C)noc1C)ncc1[nH]c(=O)n([C@H](C)c3ccccn3)c12 [I-BET151] (100 nM) | 104 | 104 | 98.4 | 103 | 96 | 98.9 | 98.8 | 105 | 99.6 | 100 | 85.7 | 96.4 | 110 | 94.8 | 89.6 | 117 | 93.8 | 99.9 | 102 | 107 | 112 | 102 | 103 | 89.7 | 54 | 93.2 | 78.7 | 99.1 | 98.3 | 64.7 | 102 | 103 | 101 | 91.9 | 89.9 | 97.4 | 108 |
| CC(C)C(=O)Nc1ccc([N+](=O)[O-])c(C(F)(F)F)c1 [Flutamide] (100 nM) | 95 | 113 | 94.9 | 98 | 98.5 | 94 | 101 | 95.9 | 102 | 111 | 109 | 102 | 100 | 104 | 101 | 103 | 96.8 | 98.5 | 98 | 89.6 | 111 | 57.6 | 95.8 | 105 | 124 | 94.1 | 97.2 | 96.9 | 104 | 82 | 92.5 | 99.3 | 99.8 | 68.4 | 50.2 | 104 | 87.2 |
| C[C@@H](C(=O)O)c1ccc(-c2ccccc2)c(F)c1 [Tarenflurbil] (100 nM) | 95 | 91.1 | 91.2 | 96.2 | 95.2 | 96.4 | 97.3 | 91.6 | 97.3 | 106 | 101 | 97.9 | 90.3 | 101 | 101 | 94.8 | 91.7 | 98.3 | 102 | 101 | 92.8 | 100 | 103 | 93 | 101 | 98.8 | 96.1 | 99.3 | 100 | 72 | 102 | 98.1 | 93.2 | 98.1 | 61.1 | 103 | 89.7 |
| CCCc1cc(C)[nH]c(=O)c1CNC(=O)c1cc(-c2ccnc(N3CCN(C)CC3)c2)cc2c1cnn2C(C)C [GSK343] (100 nM) | 91.9 | 67.6 | 94.9 | 95.5 | 96.5 | 84.6 | 101 | 88.1 | 97.2 | 82.2 | 90 | 103 | 90.1 | 92.5 | 94.8 | 93.2 | 92.7 | 94.6 | 95.5 | 106 | 62.8 | 87.8 | 99.6 | 105 | 161 | 98.5 | 100 | 96.3 | 102 | 88.6 | 101 | 96 | 100 | 91.9 | 85.8 | 95.3 | 51 |
